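Values below derive from 48-hour exposures of cells grown in 96-well plates, with endpoints linearly interpolated between the two concentrations bracketing the appropriate inhibition level. At the GI50, growth is halved. TGI is the concentration that stops growth completely.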
What was measured:
Test in all cases: NCI anticancer screen, dose series, 48 h
[1] = tested on: K-562 leukemia
[2] = tested on: SF-539 CNS
[3] = tested on: MCF7 breast
[4] = tested on: ACHN renal
[5] = tested on: OVCAR-3 ovarian
[6] = tested on: IGROV1 ovarian
[7] = tested on: DU-145 prostate
[8] = tested on: SNB-19 CNS
[9] = tested on: HT29 colon
[10] = tested on: MALME-3M melanoma
[11] = tested on: HOP-62 NSCLC
[12] = tested on: SR leukemia
[13] = tested on: MDA-MB-231 breast
[14] = tested on: CAKI-1 renal
[15] = tested on: CCRF-CEM leukemia
[16] = tested on: SN12C renal
[17] = tested on: SF-268 CNS
[18] = tested on: MDA-MB-435
[19] = tested on: OVCAR-8 ovarian
[20] = tested on: 786-0 renal
[21] = tested on: COLO 205 colon
[22] = tested on: OVCAR-5 ovarian
[23] = tested on: BT-549 breast
[24] = tested on: RPMI-8226 leukemia
[25] = tested on: SK-MEL-2 melanoma
[26] = tested on: T-47D breast
[27] = tested on: A498 renal

## Cc1ccc2cc3c(cc(C)c4ccccc43)c3c2c1CC3
[1]
  GI50: > 100 µM
  TGI: > 100 µM
[2]
  GI50: > 100 µM
  TGI: > 100 µM
[3]
  GI50: 35.2 µM
  TGI: > 100 µM
[4]
  GI50: 60.1 µM
  TGI: > 100 µM
[5]
  GI50: > 100 µM
  TGI: > 100 µM
[6]
  GI50: > 100 µM
  TGI: > 100 µM
[7]
  GI50: > 100 µM
  TGI: > 100 µM
[8]
  GI50: > 100 µM
  TGI: > 100 µM
[9]
  GI50: > 100 µM
  TGI: > 100 µM
[10]
  GI50: > 100 µM
  TGI: > 100 µM
[11]
  GI50: 58.8 µM
  TGI: > 100 µM
[12]
  GI50: 87.5 µM
  TGI: > 100 µM
[13]
  GI50: 48.2 µM
  TGI: > 100 µM
[14]
  GI50: > 100 µM
  TGI: > 100 µM
[15]
  GI50: > 100 µM
  TGI: > 100 µM
[16]
  GI50: > 100 µM
  TGI: > 100 µM
[17]
  GI50: > 100 µM
  TGI: > 100 µM
[18]
  GI50: > 100 µM
  TGI: > 100 µM
[19]
  GI50: > 100 µM
  TGI: > 100 µM
[20]
  GI50: > 100 µM
  TGI: > 100 µM
[21]
  GI50: > 100 µM
  TGI: > 100 µM
[22]
  GI50: > 100 µM
  TGI: > 100 µM
[23]
  GI50: > 100 µM
  TGI: > 100 µM
[24]
  GI50: > 100 µM
  TGI: > 100 µM
[25]
  GI50: > 100 µM
  TGI: > 100 µM
[26]
  GI50: > 100 µM
  TGI: > 100 µM
[27]
  GI50: 76 µM
